Entries after “also recorded” stand apart in the source; their conditions may differ.
Tests used:
cultured neurons [1] = assay: Excitatory Postsynaptic Currents (EPSCs), Patch Clamp recording in cultured neurons; type: cell-based; conditions: for average EPSCs: control 21±5 pA
Experimental: (§1) FIG. 12 depicts, in accordance with embodiments herein, the impact of PACAP's administration on synapses. […] Cultured neurons were treated with either nothing (top left), Aβ42 (top middle) or PACAP with Aβ42 (top right). Bottom panel: PACAP enhances synaptic transmissions (EPSCs frequency and amplitude) in cultured neuronal network.
(§2) Furthermore, PACAP increased the frequency and amplitude of Excitatory Postsynaptic Currents (EPSCs) in cultured neurons without Aβ in the media (FIG. 12 bottom panel). The average EPSCs was 21±5 pA in control (n=7 cells), which was increased to 31±3 pA (n=9 cells) if the cultured neurons were pretreated with PACAP (20 nM) for 72 hours before Patch Clamp recording (p<0.05, one way ANOVA with posthoc Tukey test). PACAP6-38, the truncated non-active version mixed with PACAP38 blocked the effect of PACAP, resulting in an average EPSCs of 24±3 pA (n=6).

[2] = system: phosphorylated Tau protein at the site of pThr231; assay: Aβ42-induced Tau phosphorylation at Thr231, Western blot in cultured primary neurons; type: cell-based
Excerpt: The cells were harvested and homogenized for Western blot assay. The inventors used an antibody specific to phosphorylated Tau protein at the site of pThr231 (Pierce-antibody OPA1-03156).

BACE1 [3] = assay: BACE1 expression after PACAP treatment; type: cell-based, APP-transgenic mice
Excerpt: PACAP38 is the full length active peptide.
(§3) As the amyloid accumulation in AD was contributed by amyloid precursor protein (APP) cleaved by overactive β-secretase (BACE1) and subsequently by γ-secretase, the desirable therapeutic goal is to inhibit BACE1 and/or γ-secretase, while enhancing α-secretase. The inventors used APP-transgenic mice pups to establish cortical neuronal culture with the method that the inventors previously published (Han et al 2014, Neurobiology of Aging). At 14 days, the inventors added PACAP and treated for 72 hours. Then the cells were harvest for BACE1, ADAMS, or other ELISA-based Assays.

[4] = system: APP transgenic mice and wild-type littermates; assay: Novel Objects Recognition (NOR) test after intranasal PACAP; type: in vivo; conditions: PACAP-treated WT mice
Experimental: (§4) The inventors gave intranasal PACAP treatment to a group of APP transgenic mice and their wild-type littermates. Starting from the age of 6 months, these groups of mice were given bilateral nostril injection of PACAP (0.1 μg/μl, 3 μl per nostril) three times per week for eight continuous weeks. The injection procedure was described by Nonako et al 2012. At the age of 9 months, the inventors sacrificed the mice and examined amyloid plaques in the hippocampal regions using thioflavin-S staining and photographed under fluorescent microscope. These thioflavin-S positive dense core plaques are associated with deleterious effects whereas thioflavin-S negative diffusive amyloid plaques are non-detrimental and often associated with cognitive normal elderly individuals (Serrano-Pozo et al., 2011).
Next, the inventors performed the Novel Objects Recognition (NOR) test. Briefly, the mice were acclimatized to a square chamber, then two identical objects were placed in the chamber on the second day. On the third day, one of the objects was replaced with a novel object. It is a natural behavior to take more time to explore the new object. The discriminating capacity on the new object vs the old object was calculated as discrimination index (DI) as follows:
In APP mice, DI change was −110% (n=4), indicating deterioration on cognitive function from 6-9 month (without PACAP treatment). […]

BACE1 [5] = assay: BACE1 FRET activity assay (Michaelis-Menten) on PACAP-treated cortical neuronal culture; type: cell-based, APP-transgenic mice; conditions: PACAP treatment
Experimental: FIG. 7 depicts, in accordance with embodiments herein, that PACAP inhibits BACE1 activity. Left panel: BACE1 activity kinetic was measured and fitted with Michaelis-Menten Model. […] Right panel: steady state endpoint fluorescent units (RFU). Note PACAP reduces the end product by BACE1.
as §3
The inventors measured BACE1 activity using a BACE1 FRET assay kit (Panvera, Life technologies) with a customized protocol. The artificial substrate of BACE1 is a short peptide with a rhodamine-derived fluorescent donor coupled to a quenching acceptor (Rh-[…]-Quencher). Upon cleavage by BACE1, the rhodamine donor is released from quencher and emitted fluorescence detected under a wavelength of Ex/Em=545/585 nm. […]

APP transgenic mice [6] = assay: Morris Water Maze (MWM) in APP mice after intranasal PACAP; type: in vivo; conditions: APP mice at 10 months
Experimental: (A) APP mice were either treated with intranasal PACAP (n=4) or treated with intranasal saline (n=4). (B) WT mice were either treated with intranasal PACAP (n=3) or saline (n=3).
as §4
In APP mice, DI change was −110% (n=4), indicating deterioration on cognitive function from 6-9 month (without PACAP treatment). PACAP treatment slows the declining rate as the DI change was −40% in PACAP-treated APP mice group (n=4). Furthermore, the inventors tested the mice in the Morris Water Maze (MWM), which is a behavior test used to examine the spatial recognition and memory function of mice. […]

APP transgenic mice [7] = assay: Thioflavin-S dense core amyloid plaques in hippocampal region after intranasal PACAP; type: in vivo
Experimental: FIG. 13 depicts, in accordance with embodiments herein, the impact of PACAP's administration on plaques in APP transgenic mice in that PACAP reduces dense core amyloid plaque size. A: a typical amyloid plaque in the hippocampal region of an untreated APP transgenic mouse at 9 month age. Bar=20 μM. B: an amyloid plaque in the hippocampal region from an APP transgenic mouse (9 month) after intranasal PACAP treatment. Bar=20 μM.
as §4

[8] = system: phosphorylated Tau protein at the site of 422; assay: Aβ42-induced Tau phosphorylation at site 422, In-Cell Western in cultured primary neurons; type: cell-based
Experimental: The cells were fixed in 96 wells plate for In-Cell Western assay. The inventors used an antibody specific to phosphorylated Tau protein at the site of 422 and Tau5 antibody for total Tau quantification. pTau/total Tau ratio was calculated and compared. […] Okadaic acid (OA) is a potent phosphatase inhibitor to test maximal pTau capacity.
Because Tau hyperphosphorylation is contingent upon Aβ, this in vitro model best epitomizes AD pathogenesis and can differentiate AD from other tauopathy (FTLD, PDD, etc). […] Meanwhile, PACAP38 (lane 4) reduced Aβ-induced Tau phosphorylation and the phosphorylated Tau to actin ratio was 0.5. […] In addition to the phosphorylation site at Thr231 of Tau, the inventors tested pTau 422 using an in-cell Western approach on cultured cells (FIG. 11). PACAP (50 nM) reduces pTau422 by 40%.

[9] = system: primary cortical neuron cultures; assay: Aβ-induced toxicity, MTT cell survival in primary cortical neuron cultures; type: cell-based, mice; conditions: for cell survival (MTT, control cells normalized to 100%): overnight
Experimental: The inventors applied three different doses of Aβ overnight to primary cortical neuron cultures obtained from neonatal mice and examined cell survival using the MTT chemiluminescent assay (FIG. 6). The MTT value of control cells (no Aβ added) was normalized to 100% and all other MTT values of cells incubated with Aβ were presented as a percentage of survival.

cultured neurons [10] = assay: Neurite integrity / Aβ-induced synaptic degeneration in cultured neurons; type: cell-based; conditions: PACAP with Aβ42
Experimental: as §1, §2

hTau transgenic mice = assay: Morris Water Maze in hTau transgenic mice after intranasal PACAP; type: in vivo; conditions: hTau mice at 10 months, intranasal PACAP 0.1 μg/μl, 3 μl per nostril, 3 times a week, 8 weeks
Experimental: The inventors gave intranasal PACAP treatment for a group of hTau transgenic mice and their WT littermates. Starting from the age of 6 months, these groups of mice were given bilateral nostril injection of PACAP (0.1 μg/μl, 3 μl per nostril) 3 times a week for a continuous 8 weeks. Human Tau mice are appropriate model to test Tau phosphorylation and its pathological consequence. In this strain (B6.Cg-Mapttml(EGFP)Klt Tg(MAPT)8cPdav/J, Jackson lab), the intrinsic mice tau was disrupted by inserting eGFP sequence to the first exon of mice tau, but all 6 isoforms of human Tau (both 3R and 4R) were knocked in. The hTau mice show age dependent accumulation of hyperphosphorylated and aggregated tau in cortex and hippocampus, neuronal loss, and cognitive decline. The inventors tested the mice in Morris Water Maze, which is a behavior test approach to examine the spatial recognition and memory function of mice. […] Taken together, PACAP nasal injection decreases AD pathology and improves cognitive performance in two animal models of AD.

Substance: PACAP6-38 [reference compound]
- effect on PACAP enhancement of synaptic transmissions (cultured neurons [1]; PAC1 receptor antagonist with PACAP): blocks the enhancement
- average EPSCs (cultured neurons [1]; PACAP6-38 mixed with PACAP38): 24±3 pA
- effect on PACAP reduction of pTau231 ([2]; PACAP6-38 (2 μM) with PACAP38 (50 nM) and Aβ42, lane 3): offsetting the effect of PACAP
- effect of PAC1 receptor blocker on BACE1 reduction by PACAP (BACE1 [3]; PACAP6-38 with PACAP): antagonized the BACE1 reduction effect of PACAP

Substance: Pituitary Adenylate Cyclase Activating Polypeptide [PACAP]
- frequency and amplitude of EPSCs (cultured neurons [1]; cultured neurons without Aβ in the media): increased; also recorded: enhances
- average EPSCs (cultured neurons [1]; pretreated with PACAP (20 nM) 72 hours, no Aβ): 31±3 pA
- discrimination index (DI) change [4]: positively changed
- steady state endpoint fluorescent units (RFU), end product by BACE1 (BACE1 [5]): reduces
- MWM performance (APP transgenic mice [6]): prevents the deterioration
- dense core amyloid plaque size (average core diameter) (APP transgenic mice [7]; intranasal PACAP 0.1 μg/μl, 3 μl per nostril, three times per week, eight weeks from 6 months, examined at 9 months): smaller size; also recorded: significantly reduced
- number of amyloid plaques (APP transgenic mice [7]; intranasal PACAP, APP transgenic mice, 9 month): did not significant change
- reduction of pTau422 ([8]; PACAP 50 nM, Aβ42 (0.25 μM) treated cells): 40%
- pTau/total Tau ratio ([8]; PACAP by itself, without Aβ42): did not change Tau phosphorylation
- reduction of pTau422 ([8]; low dose PACAP 10 nM, Aβ42 treated cells): marginal effect
- PACAP concentration that effectively protects against Aβ42 toxicity ([9]; Aβ42 1 μM, cultured mouse cortical neurons): ≥ 50 nM
- cell survival (MTT, control cells normalized to 100%) ([9]; PACAP 50 nM added at the same time as 1 μM Aβ): 79±5%
- cell survival (MTT, control cells normalized to 100%) ([9]; PACAP 100 nM added at the same time as 1 μM Aβ): 87±4%
- phosphorylated Tau (pTau231) to actin ratio ([2]; PACAP38 (50 nM) added 24 hours after Aβ42 (0.5 μM), 48 hours, lane 4, non-treated 0.25): 0.5
- neurite integrity / Aβ-induced synaptic degeneration (cultured neurons [10]): protects Aβ-induced synaptic degeneration; also recorded: protects Aβ induced synaptic degeneration; also recorded: protects neurite integrity
- MWM performance (hTau transgenic mice): prevented the deterioration
- BACE1 expression (BACE1 [3]; PACAP38 full length peptide): reduces BACE1 expression
